For data set [1] the following is noted: Coukell et al 1996; cited from earlier work.
The conditions of data set [2]: human, in vivo, po.
In data set [3] the test system is healthy volunteers. Nature of the data set: concentration-QTc analysis, linear mixed-effects model (Example 7A). The data set is classed as in vivo, human. How it is done:
The effect of amisulpride (enantiomers and total) on change-from-baseline QTcF and heart rate (ΔQTcF and ΔHR) was evaluated based on a linear mixed-effects model at each nominal post-dosing time point (“by-time point analysis”) using the intersection union test. In the concentration-QTc analysis (primary analysis), the full model included ΔQTcF as the dependent variable, time-matched plasma concentrations of R- and S- and total amisulpride enantiomers as the explanatory variates, centered baseline QTcF (i.e., baseline QTcF for individual subject subtracting the population mean baseline QTcF for all subjects) as an additional covariate, a fixed intercept, and random effect for both intercept and slopes per subject, when applicable. A pre-specified model selection procedure was then performed to choose a primary model from among the full model and reduced models from possible first order combinations (without quadratic and interaction terms) among these 3 analytes of concentrations of R- and S-enantiomers and total amisulpride (including models with only 1 analyte and with any 2 analytes).
The observations and a linear mixed-effects model parameters derived therefrom was used to estimate the ΔQTcF at the observed Cmax of the formulation Lots studied.

A short description of the next data set: clinical. The note with it: human, in vivo.
For data set [4], the system named is healthy volunteers. Nature of the data set: REM suppression polysomnography (PSG) study of (R)-amisulpride (Example 5). The data set is classed as in vivo, human. How it is done:
REM suppression was the biomarker used to determine clinically-significant levels of 5-HT7 antagonism and its pharmacodynamics. REM suppression was assessed by total time in minutes spent in REM sleep and by the latency in minutes to REM sleep. […] REM suppression in human volunteers is an established translational biomarker useful to identify doses for antidepressant effects in patients.
The primary endpoint was REM sleep suppression as determined at post dose time points in the measures of latency to REM sleep, REM sleep time in minutes, and percent decrease in REM sleep time relative to total sleep time.
The REM suppression time value is the Least Square Mean differences from placebo, and the error bars represent the 90% confidence interval (CI).
The results presented in Tables 21-23 were determined from an analysis of the date based on a linear mixed model with terms for treatment, period, and treatment sequence as fixed effects, respective baseline PSG value as a continuous covariate, and treatment-by-baseline PSG interaction, and subject nested within sequence as a random effect, the Kenward and Roger correction for the degrees of freedom and an unstructured covariance structure to model the intrasubject correlation. The abbreviations used in Tables 21-23 are as follows: PSG=polysomnography; CI=confidence interval; LS=least-squares; REM=rapid eye movement; SE=standard error.

A further data set deals with freely moving rats. Description: Sleep study of (R)-amisulpride, EEG/EMG (Example 3A). The data set is classed as in vivo, rat. Conditions: 10, 30, 100 mg/kg, p.o. The method, then: Rapid eye movement (REM) sleep time, non-rapid eye movement (NREM) sleep time, WAKE time were measured using electroencephalogram (EEG) and electromyogram (EMG) recordings. […] EEG and EMG recordings were made for 6 hr starting at the beginning of the light phase. Vehicle (0.05 N HCl/0.5% Methyl Cellulose 400 solution) or dosing suspensions were orally administered 10 min before the beginning of light phase. The volume of administration was 5 mL/kg. The order of drug treatment varied pseudo-randomly and at least 1 week was allowed between the experiments for individual animals.
A radio transmitter (TL11M2-F40-EET; Data Science International, New Brighton, Minn., USA) was implanted subcutaneously in the back of anesthetized animals, and a pair of electrode wires was stereotaxically implanted into the skull in the following locations: one in the frontoparietal (2 mm anterior to the bregma and 2 mm left to the midline), and the other in parietal (5 mm posterior to the bregma and 2 mm right to the midline) areas. The EEG electrodes were fixed using dental cement. Electromyograms (EMG) were recorded from the dorsal neck muscle. […] EEG/EMG were recorded in the home cages in a soundproof box using Dataquest A.R.T. software (Data Science International, New Brighton, Minn., USA) at a sampling rate of 500 Hz. […]

The mark [5] stands for this setting: linear mixed-effects model, total amisulpride concentration vs ΔQTcF.

We go through two molecules from patent US11160758B2, “Modified release formulations and uses thereof” (Sunovion Pharmaceuticals Inc., priority 2019, dated 2021).

With `CCN1CCCC1CNC(=O)c1cc(S(=O)(=O)CC)c(N)cc1OC` (stereo not drawn) [amisulpride, 4-amino-N-[(1-ethylpyrrolidin-2-yl)methyl]-5-ethylsulfonyl-2-methoxy-benzamide], the terminal plasma half-life entry in data set [1] is reported as “approximately 12 hours”. In data set [2], the “washout observed for blood plasma concentration” value was “approximately 24 hour”. Further, the “estimated population slope of the concentration-QTc relationship” value with healthy volunteers [3] (90% CI: 0.0257 to 0.0369) is recorded as 0.031 ms per ng/mL. Moreover, the “intercept of the concentration-QTc relationship” value in the data set on healthy volunteers [3] (90% CI: −4.88 to 0.27) was -2.3 ms. In addition, in the data set with healthy volunteers [3] (setting [5]), the “Centered Baseline Effect of concentration-QTc relationship model” value is -0.23 ms, the “Intercept of concentration-QTc relationship model” value is -2.31 ms and the “Total Amisulpride Slope of concentration-QTc relationship model” value is 0.031 ms per ng/mL. In the data set “clinical”, the concentration at 0.5 hr was determined as 346 ng/mL, the concentration at 1 hr was 294 ng/mL, the concentration at 2 hr was 432 ng/mL and the concentration at 3 hr is 516 ng/mL. In the data set “clinical”, this molecule gave a concentration at 4 hr of 272 ng/mL, a concentration at 6 hr of 163 ng/mL, a concentration at 8 hr of 96.8 ng/mL and a concentration at 10 hr of 69.9 ng/mL. In “clinical”, this molecule showed a concentration at 12 hr of 55.6 ng/mL, a concentration at 24 hr of 21.2 ng/mL, a concentration at 36 hr of 9.84 ng/mL and a concentration at 48 hr of 7.02 ng/mL. This molecule also came in with a concentration at 72 hr in “clinical” of 1.48 ng/mL.
Consider `CCN1CCC[C@@H]1CNC(=O)c1cc(S(=O)(=O)CC)c(N)cc1OC` [(R)-amisulpride, R-4-Amino-N-[(1-ethyl-2-pyrrolidinyl)methyl]-5-(ethylsulfonyl)-2-methoxybenzamide], for which the tolerability result in the data set with healthy volunteers [4] (healthy subjects) is on record as “well tolerated”. In the data set with healthy volunteers [4] (in vivo), the “vital signs and ECGs” value is reported as “normal”. In addition, the “NREM sleep time and WAKE time” value in the data set with freely moving rats was “no observed effect”. For the same molecule, the REM sleep duration entry in the data set on freely moving rats (light phase) is “reduced REM sleep duration in dose-dependent manner”.
